Experimental data taken from publication PMC9172283 (Antiviral Research, 2022).

Experiments:
SARS-CoV-2 M^pro = SARS-CoV-2 M^pro (Severe acute respiratory syndrome coronavirus 2, UniProt P0DTD1); assay: FRET-based SARS-CoV-2 M^pro activity assay in vitro; assay type: biochemical; settings: for Fold increase of inhibitory potency against M^pro compared to parental hit 7: compared to hit 7
SARS-CoV-2 [1] = assay: Plaque reduction assay; assay type: cell-based, SARS-CoV-2/NL/2020 strain; settings: ratio between CC50 and EC50; SARS-CoV-2, Vero E6 cells
[2] = MTT cell viability assay in Vero E6 cells; assay type: cell-based; settings: African green monkey
SARS-CoV-2 [3] = assay: Virus yield reduction assay of SARS-CoV-2 in Calu-3 cells; assay type: cell-based; settings: MOI 0.01, 36 h p.i., titration on Vero E6
SARS-CoV-2 [4] = assay: Time-of-addition experiments with SARS-CoV-2 in Vero E6 cells; assay type: cell-based; settings: 50 μM, added at +4 h p.i.
[5] = tested on: SARS-CoV-2 M^pro (NanoLuc-nsp4-M^pro fusion protein); assay type: cell-based

SMILES | IC50 (SARS-CoV-2 M^pro) | Fold increase of inhibitory potency against M^pro compared to parental hit 7 (SARS-CoV-2 M^pro) | SI, Selectivity Index (SARS-CoV-2 [1]) | CC50 at 72 h [2] | SARS-CoV-2 titers in supernatants of infected and treated Calu-3 cells (SARS-CoV-2 [3]) | Time-of-addition: effect of addition at 4 h p.i. (SARS-CoV-2 [4]) | Inhibition of proteolytic cleavage of NanoLuc-nsp4-M^pro in cells [5]
CC(C)[C@H](NC(=O)c1ccccc1NC(=O)c1ccccc1)C(=O)N[C@H](CO)C(C)C [Compound 36, 2-Benzamido-N-((S)-1-(((S)-1-hydroxy-3-methylbutan-2-yl)amino)-3-methyl-1-oxobutan-2-yl)benzamide] | 42.9 ± 8.3 µM | > 2 fold | >192 | > 250 µM | confirmed active | still exerted an antiviral effect | dose-dependent inhibition of the proteolytic cleavage
CC(C)[C@H](NC(=O)c1ccccc1NC(=O)c1ccccn1)C(=O)N[C@H](CO)C(C)C [Compound 37, N-(2-(((S)-1-(((S)-1-Hydroxy-3-methylbutan-2-yl)amino)-3-methyl-1-oxobutan-2-yl)carbamoyl)phenyl)picolinamide] | 41.3 ± 7.6 µM | > 2 fold | >119 | > 250 µM | confirmed active | still exerted an antiviral effect | dose-dependent inhibition of the proteolytic cleavage
